Consider 8 compounds from ChEMBL document CHEMBL3860096, “Fragment-to-Lead Medicinal Chemistry Publications in 2015” (J Med Chem, 2017).

Experiment [1] concerns the target DNA repair protein RAD51 homolog 1 (Homo sapiens, UniProt Q06609). The experiment can be described thus: Binding affinity to of humanised RAD51 C-terminal ATPase domain (with deletion of L2 loop residues 288 to 314) from Pyrococcus furiosus expressed in Escherichia coli by ITC method. Background: ITC needs no label: the signal is the heat of the interaction.
The target of experiment [2] is Coagulation factor XI (Homo sapiens, UniProt P03951). The experiment is described as follows: Inhibition of human factor 11a using pyroGlu-Pro-Arg-pNA.HCl substrate.
The nature of experiment [3]: Inhibition of Streptococcus pneumoniae NAD+-dependent DNA ligase A.
The nature of experiment [4]: Inhibition of Haemophilus influenzae NAD+-dependent DNA ligase A.
Experiment [5] can be described thus: Inhibition of DNA gyrase B (unknown origin).
In experiment [6] the target is Collagenase 3 (Homo sapiens, UniProt P45452). The experiment can be described thus: Inhibition of human recombinant MMP13 using thiopeptide as chromogenic substrate by colorimetric assay.
For experiment [7], the target named is Proto-oncogene tyrosine-protein kinase receptor Ret (Homo sapiens) (UniProt P07949). The experiment can be described thus: Inhibition of human recombinant RET assessed as residual activity at 100 uM by microfluidics separation based assay.
Chain of Proto-oncogene tyrosine-protein kinase receptor Ret (Homo sapiens) (P07949 whole entry): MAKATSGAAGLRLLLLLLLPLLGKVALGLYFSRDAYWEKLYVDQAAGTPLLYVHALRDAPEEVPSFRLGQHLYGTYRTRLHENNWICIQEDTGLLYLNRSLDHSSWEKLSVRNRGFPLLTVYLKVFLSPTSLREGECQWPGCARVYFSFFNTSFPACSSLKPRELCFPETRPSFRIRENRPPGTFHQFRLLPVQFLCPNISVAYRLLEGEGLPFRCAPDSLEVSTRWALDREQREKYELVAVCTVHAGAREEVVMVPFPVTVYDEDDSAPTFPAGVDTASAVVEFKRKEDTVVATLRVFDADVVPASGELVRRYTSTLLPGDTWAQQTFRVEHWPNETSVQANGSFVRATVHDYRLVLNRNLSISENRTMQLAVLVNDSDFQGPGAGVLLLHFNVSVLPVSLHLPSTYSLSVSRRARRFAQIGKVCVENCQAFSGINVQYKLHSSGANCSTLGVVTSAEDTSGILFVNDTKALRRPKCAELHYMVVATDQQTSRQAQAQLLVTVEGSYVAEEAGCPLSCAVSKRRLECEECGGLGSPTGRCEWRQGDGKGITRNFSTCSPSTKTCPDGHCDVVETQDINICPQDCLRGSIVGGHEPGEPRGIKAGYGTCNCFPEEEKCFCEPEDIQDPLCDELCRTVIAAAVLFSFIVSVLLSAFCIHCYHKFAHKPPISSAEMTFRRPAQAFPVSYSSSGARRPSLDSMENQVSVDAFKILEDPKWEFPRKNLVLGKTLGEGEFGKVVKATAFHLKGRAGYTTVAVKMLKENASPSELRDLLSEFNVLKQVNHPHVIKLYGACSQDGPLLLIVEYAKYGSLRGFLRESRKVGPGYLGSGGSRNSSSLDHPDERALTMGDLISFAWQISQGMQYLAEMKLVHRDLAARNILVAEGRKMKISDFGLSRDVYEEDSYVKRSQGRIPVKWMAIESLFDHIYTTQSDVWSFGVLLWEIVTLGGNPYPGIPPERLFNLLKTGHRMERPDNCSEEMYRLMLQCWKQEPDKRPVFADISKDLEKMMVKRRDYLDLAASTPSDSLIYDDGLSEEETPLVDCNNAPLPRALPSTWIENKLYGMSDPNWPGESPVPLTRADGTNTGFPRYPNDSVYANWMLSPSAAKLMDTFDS

Chain of DNA repair protein RAD51 homolog 1 (Q06609 2-339 limits assumed): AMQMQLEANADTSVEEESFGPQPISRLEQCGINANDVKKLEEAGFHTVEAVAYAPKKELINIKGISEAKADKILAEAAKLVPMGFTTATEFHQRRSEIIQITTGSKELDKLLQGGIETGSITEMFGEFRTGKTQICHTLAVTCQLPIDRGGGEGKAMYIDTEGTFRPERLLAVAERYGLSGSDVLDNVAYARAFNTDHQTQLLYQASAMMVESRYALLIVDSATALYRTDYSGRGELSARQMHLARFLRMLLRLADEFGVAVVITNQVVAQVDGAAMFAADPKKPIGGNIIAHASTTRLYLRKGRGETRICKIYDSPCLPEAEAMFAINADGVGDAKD
Chain of Coagulation factor XI (P03951 19-387 limits assumed): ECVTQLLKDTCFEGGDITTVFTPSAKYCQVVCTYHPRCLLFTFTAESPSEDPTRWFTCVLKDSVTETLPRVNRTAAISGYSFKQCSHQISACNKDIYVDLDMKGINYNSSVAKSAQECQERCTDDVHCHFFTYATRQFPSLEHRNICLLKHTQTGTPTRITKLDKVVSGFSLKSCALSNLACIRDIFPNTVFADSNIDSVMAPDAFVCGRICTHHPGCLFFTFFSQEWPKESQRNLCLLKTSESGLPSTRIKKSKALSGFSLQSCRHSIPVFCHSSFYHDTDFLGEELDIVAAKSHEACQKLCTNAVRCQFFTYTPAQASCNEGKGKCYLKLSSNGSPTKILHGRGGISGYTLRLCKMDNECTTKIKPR
Chain of Coagulation factor XI (P03951 388-625 limits assumed): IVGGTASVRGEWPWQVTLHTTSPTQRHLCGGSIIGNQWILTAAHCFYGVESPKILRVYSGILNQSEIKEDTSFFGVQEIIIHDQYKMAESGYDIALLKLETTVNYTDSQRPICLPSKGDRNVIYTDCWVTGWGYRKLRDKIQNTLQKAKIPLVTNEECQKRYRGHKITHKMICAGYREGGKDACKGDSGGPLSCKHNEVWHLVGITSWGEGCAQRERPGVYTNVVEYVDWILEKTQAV

Compound `O=S(=O)(NCCc1c[nH]c2ccccc12)c1cc(Br)c(Cl)s1` yielded a Kd in experiment [1] of 1.3 µM.

In experiment [2], `O=C(N[C@@H](Cc1ccccc1)C(=O)NCc1cc2cc(Cl)ccc2[nH]c1=O)c1ccc2[nH]c(=O)cc(O)c2c1` came in with a Ki of 0.0005 µM.

As to `CC(C)(C)c1nc(-c2ccc[nH]2)c2cc(C(N)=O)c(N)nc2n1`, the IC50 in experiment [3] and in experiment [4] was 0.1 µM in each case.

In the case of `COC(=O)[C@@H](N)Cc1c[nH]c2ccccc12` [TRYPTOPHAN METHYL ESTER], the affinity in experiment [1], expressed as Kd, was 570 µM.

Regarding `Cc1ccc2cc(C(N)=O)cc(O)c2n1`, the IC50 in experiment [3] and in experiment [4] was over 500 µM each time.

Turning to `Cc1cc(-c2cc(NC(=O)c3ccc(C(=O)O)cc3C)[nH]n2)cc(C(F)(F)F)c1`, the IC50 in experiment [5] was 0.16 µM.

Turning to `COc1cccc(CNC(=O)C#Cc2cn(Cc3ccc(C(=O)O)cc3)c(=O)[nH]c2=O)c1`, the IC50 in experiment [6] worked out at 0.011 µM.

On to `Brc1ccc2c(c1)ncn2-c1ccccc1`, for which, in experiment [7], the Activity stood at 28%.

As a reminder, the Kd is a measure of binding affinity in units of concentration. In general, Ki refers to a measure of affinity in units of concentration, obtained from inhibition or displacement. A higher Ki goes with weaker binding. The term IC50 denotes the concentration at which inhibition is half-maximal.
